# Measurements published in publication PMC9783573, “Introduction of a SiFA Moiety into the D-Glutamate Chain of DOTA-PP-F11N Results in Radiohybrid-Based CCK-2R-Targeted Compounds with Improved Pharmacokinetics In Vivo” (Pharmaceuticals, 2022).
# Like-named read-outs stand apart in the source and are kept apart here. Non-standard residues stand in square brackets, D forms with d. Residues, ends and D or L forms follow the SMILES beside them. *: point of attachment. X1 = O=C(O)CN1CCN(CC(=O)O)CCN([C@H](CCC(=O)*)C(=O)O)CCN(CC(=O)O)CC1; Benzoyl(4-SiFtBu2) = CC(C)(C)[Si](F)(c1ccc(C(=O)*)cc1)C(C)(C)C; Nle = CCCC[C@H](N)C(=O)O; dDap = NC[C@@H](N)C(=O)O
# Molecular target: T1, CCK-2R (Rattus norvegicus, UniProt P30553)
# T1 construct: CCK-2R expressing rat pancreatic cancer cells AR42J (CLS GmbH, Eppelheim,; host or cells: AR42J rat pancreatic cancer cells
# T1 sequence (P30553 1-452): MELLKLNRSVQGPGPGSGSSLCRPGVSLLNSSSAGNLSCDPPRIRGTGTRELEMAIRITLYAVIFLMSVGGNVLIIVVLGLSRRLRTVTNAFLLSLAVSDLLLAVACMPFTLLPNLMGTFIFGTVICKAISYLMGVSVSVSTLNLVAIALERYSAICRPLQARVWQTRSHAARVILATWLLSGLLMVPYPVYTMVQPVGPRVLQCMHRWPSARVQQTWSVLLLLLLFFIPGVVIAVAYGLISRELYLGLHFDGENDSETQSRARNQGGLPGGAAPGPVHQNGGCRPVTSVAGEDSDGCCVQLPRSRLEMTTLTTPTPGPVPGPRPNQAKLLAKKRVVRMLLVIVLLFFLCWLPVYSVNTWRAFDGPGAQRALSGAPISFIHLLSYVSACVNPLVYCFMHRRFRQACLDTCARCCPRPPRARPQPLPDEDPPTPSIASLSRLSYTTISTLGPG
# Assay: Competitive binding (IC50) on AR42J cells with [177Lu]Lu-DOTA-PP-F11N as radiolabelled reference
# Conditions: natLu-labelled peptide, AR42J cells 2.0 × 10^5/well, 3 h, 37 °C, [177Lu]Lu-DOTA-PP-F11N 0.3 pmol/well
# Description: Detailed description of all cell-based experiments is provided in the Supplementary Materials. In brief, competitive binding studies were conducted on AR42J cells (2.0 × 10^5 cells per 1 mL/well) via incubation at 37 °C for 3 h using [^177Lu]Lu-DOTA-PP-F11N (0.3 pmol) as a radiolabelled reference (n = 3).
# Cell Culture. CCK-2R expressing rat pancreatic cancer cells AR42J (CLS GmbH, Eppelheim, Germany) were cultivated in monolayers in CELLSTAR ® cell culture flasks acquired from Greiner Bio-One GmbH (Frickenhausen, Germany) at 37 °C in a humidified atmosphere (5% CO2) using a HERAcell 150i-Incubator (Thermo Fisher Scientific Inc., Waltham, United States). As nutrient medium RPMI 1640 medium, supplemented with 5 mM L-Gln 5 mL non-essential amino acids (100×) and 10% FCS, was used. Furthermore, a Dulbecco’s PBS solution with 0.1% EDTA (v/v) was applied to detach the cells for cell passaging. The detached cells were counted using a Neubauer hemocytometer ( Paul Marienfeld, Lauda-Königshofen, Germany). In addition, all operations under sterile conditions were accomplished using a MSC-Advantage safety workbench (Thermo Fisher Scientific Inc., Waltham, United States).
# Determination of IC50. AR42J cells (2.0 × 10^5 cells/well) were seeded into 24-well plates 24 ± 2 h prior to testing, using 1 mL of nutrient medium (RPMI 1640, 5 mM L-Gln, 5 mL non-essential amino acids (100×), 10% FCS). Cells were incubated at 37 °C in a humidified atmosphere (5% CO2).
# After removal of the medium, each well was washed with 500 μL PBS. For the cell-based assay, 200 μL of nutrient medium (+5% BSA), [177Lu]Lu-DOTA-PP-F11N (25 μL, 0.3 pmol) as a radiolabeled reference and 25 μL of the peptide of interest in increasing concentrations (10−10 to 10−4 M) in triplicate were added to the cells. Thereafter, the assay was incubated for 3 h at 37 °C and thereafter, the supernatant was collected. The cells were washed with 300 μL PBS and the collected supernatant fractions were unified.
# After lysis of the cells with NaOH (300 μL, 1 N) for 15 min, the respective wells were washed with NaOH (300 μL, 1 N) and both fractions were unified. The radioactivity of both, the supernatant and the lysed fractions was quantified using a γ-counter (PerkinElmer Inc., Waltham, United States ). The obtained data were evaluated via the GraphPad PRISM software ( GraphPad Software Inc., La Jolla, United States), which calculates the halfmaximal inhibitory concentration ( IC50) of the peptides. […]
Structure (SMILES),IC50 [nM],also measured
"CCCC[C@H](NC(=O)[C@H](Cc1c[nH]c2ccccc12)NC(=O)CNC(=O)[C@H](Cc1ccc(O)cc1)NC(=O)[C@H](C)NC(=O)[C@@H](CCC(=O)O)NC(=O)[C@@H](CCC(=O)O)NC(=O)[C@@H](CCC(=O)O)NC(=O)[C@@H](CCC(=O)O)NC(=O)[C@@H](CCC(=O)O)NC(=O)[C@@H](CCC(=O)O)NC(=O)[C@@H](CCC(=O)O)NC(=O)[C@@H](CCC(=O)O)NC(=O)[C@@H](CNC(=O)c1ccc([Si](F)(C(C)(C)C)C(C)(C)C)cc1)NC(=O)CC[C@H](C(=O)O)N1CCN(CC(=O)O)CCN(CC(=O)O)CCN(CC(=O)O)CC1)C(=O)N[C@@H](CC(=O)O)C(=O)N[C@@H](Cc1ccccc1)C(N)=O [[nat/177Lu]Lu-(R)-DOTAGA-rhCCK-9, metal not drawn] (X1-[dDap](Benzoyl(4-SiFtBu2))[dE][dE][dE][dE][dE][dE][dE][dE]AYGW[Nle]DF-NH2)",55.3 ± 7.8,–
"CCCC[C@H](NC(=O)[C@H](Cc1c[nH]c2ccccc12)NC(=O)CNC(=O)[C@H](Cc1ccc(O)cc1)NC(=O)[C@H](C)NC(=O)CC[C@@H](NC(=O)CC[C@@H](NC(=O)CC[C@@H](NC(=O)CC[C@@H](NC(=O)CC[C@@H](NC(=O)CC[C@@H](NC(=O)[C@@H](CNC(=O)c1ccc([Si](F)(C(C)(C)C)C(C)(C)C)cc1)NC(=O)CC[C@H](C(=O)O)N1CCN(CC(=O)O)CCN(CC(=O)O)CCN(CC(=O)O)CC1)C(=O)O)C(=O)O)C(=O)O)C(=O)O)C(=O)O)C(=O)O)C(=O)N[C@@H](CC(=O)O)C(=O)N[C@@H](Cc1ccccc1)C(N)=O [[nat/177Lu]Lu-(R)-DOTAGA-rhCCK-16, metal not drawn]",20.4 ± 2.7,–
"CSCC[C@H](NC(=O)[C@H](Cc1c[nH]c2ccccc12)NC(=O)CNC(=O)[C@H](Cc1ccc(O)cc1)NC(=O)[C@H](C)NC(=O)[C@@H](CCC(=O)O)NC(=O)[C@@H](CCC(=O)O)NC(=O)[C@@H](CCC(=O)O)NC(=O)[C@@H](CCC(=O)O)NC(=O)[C@@H](CCC(=O)O)NC(=O)[C@@H](CCC(=O)O)NC(=O)CN1CCN(CC(=O)O)CCN(CC(=O)O)CCN(CC(=O)O)CC1)C(=O)N[C@@H](CC(=O)O)C(=O)N[C@@H](Cc1ccccc1)C(N)=O [[nat/177Lu]Lu-CP04, metal not drawn, reference compound]",–,"IC50 (listed as [^natLu]Lu-CP04, read-out: IC50): 11 to 13 nM"
"CCCC[C@H](NC(=O)[C@H](Cc1c[nH]c2ccccc12)NC(=O)CNC(=O)[C@H](Cc1ccc(O)cc1)NC(=O)[C@H](C)NC(=O)[C@@H](CCC(=O)O)NC(=O)[C@@H](CCC(=O)O)NC(=O)[C@@H](CCC(=O)O)NC(=O)[C@@H](CCC(=O)O)NC(=O)[C@@H](CCC(=O)O)NC(=O)[C@@H](CCC(=O)O)NC(=O)CN1CCN(CC(=O)O)CCN(CC(=O)O)CCN(CC(=O)O)CC1)C(=O)N[C@@H](CC(=O)O)C(=O)N[C@@H](Cc1ccccc1)C(N)=O [[nat/177Lu]Lu-DOTA-PP-F11N, metal not drawn, reference compound]",–,IC50 (read-out: IC50): 11 to 13 nM
